{"source": "paper PMC6915728", "about": "(Nature Communications, 2019)", "key": {"[1]": {"test_system": "E. coli gene overexpression", "conditions": "gene waaY overexpressed; ref 10 (Lázár et al. 2018); cited from earlier work", "description": "Supplement 41467_2019_13618_MOESM1_ESM.docx, table 1: Supplementary Table 1. Collected examples of E. coli gene overexpression from the literature as a confirmation of our chemical-genetic screen results. | column: Overexpression phenotype"}, "[2]": {"test_system": "AMP-evolved E. coli lines", "assay": "Cross-resistance / collateral sensitivity: relative MIC change of 38 laboratory-evolved AMP-resistant lines vs parental strain", "assay_type": "cell-based, Escherichia coli", "conditions": "AMP-adapted line PR39_10; measured here", "description": "Here, we extended this dataset by measuring susceptibility changes of the same evolved lines to four additional AMPs using identical protocols to represent AMPs from all four clusters (Supplementary Fig. 15a, see also Methods). Overall, the resulting dataset of susceptibility profiles provides a comprehensive map of cross-resistance and collateral sensitivity between AMPs representing various modes of action.\nTo characterize the cross-resistance of the 38 E. coli lineages we obtained relative MIC changes that are, the MIC values of the evolved lines compared to these of the parental strain, from two data sources. First, we used already measured relative MIC changes from Spohn et al. Supplementary data 4[20]. […] Second, we extended this dataset by measuring the relative MIC changes of the same evolved lines to four additional AMPs using identical protocol. […] In this way, AMPs from each cluster were represented in the dataset.\nSupplementary Figure 15. […] Relative change in MIC was determined for each evolved line by comparing its MIC to the ancestral cell line (control). […] CAP18-adaped lines were not included in the analysis because CAP18 is known as a membrane-targeting AMP in the literature. c, Cross-resistance interactions are enriched between membrane-targeting AMPs that are in the same chemical-genetic clusters (i.e. AMP pairs within C1 and within C2 clusters) (Significant difference: ** P = 0.0082 from two-sided Fisher’s exact test, n = 61 and 62 for within cluster and between clusters, respectively). […] Source data are provided as a Source Data file."}, "[3]": {"test_system": "AMP-evolved E. coli lines", "conditions": "ref Spohn et al 2019, cited from earlier work", "description": "Supplement 41467_2019_13618_MOESM13_ESM.xlsx, sheet \"Figure 6 and S15\" | column: A comprehensive dataset of antimicrobial susceptibility of AMP-adapted lines to antimicrobial peptides (AMPs)."}, "[4]": {"test_system": "bacterial species in which the gene showed activity", "conditions": "cited from earlier work"}}, "note": "Read-outs that look alike come from different tables or passages of the source.", "data": [{"sequence": "GLRKRLRKFRNKIKEKLKKIGQKIQGFVPKLAPRTDY [CAP18, antimicrobial peptide, source rabbit; disrupts cell membrane; cluster C3]", "values": [{"measurement": "Overexpression phenotype, Literature", "setting": "[1]", "result": "Sensitivity^10"}]}, {"sequence": "ILPWKWPWWPWRR [IND, Indolicidin, antimicrobial peptide from bovine neutrophils; cluster C3]", "values": [{"measurement": "Relative change in MIC (MIC of the AMP-adpated line / MIC of the ancestral strain)", "setting": "[2]", "result": 1.3}, {"measurement": "Relative change in MIC (MIC of the AMP-adpated line / MIC of the ancestral strain)", "setting": "[3]; AMP-adapted line BAC5_3", "result": 1.2}, {"measurement": "Relative change in MIC (MIC of the AMP-adpated line / MIC of the ancestral strain)", "setting": "[3]; AMP-adapted line BAC5_5", "result": 0.8}, {"measurement": "Relative change in MIC (MIC of the AMP-adpated line / MIC of the ancestral strain)", "setting": "[3]; AMP-adapted line BAC5_7", "result": 0.9}, {"measurement": "Relative change in MIC (MIC of the AMP-adpated line / MIC of the ancestral strain)", "setting": "[3]; AMP-adapted line BAC5_10", "result": 1}, {"measurement": "Relative change in MIC (MIC of the AMP-adpated line / MIC of the ancestral strain)", "setting": "[3]; AMP-adapted line CAP18_2", "result": 1}, {"measurement": "Relative change in MIC (MIC of the AMP-adpated line / MIC of the ancestral strain)", "setting": "[3]; AMP-adapted line CAP18_5", "result": 0.6}, {"measurement": "Relative change in MIC (MIC of the AMP-adpated line / MIC of the ancestral strain)", "setting": "[3]; AMP-adapted line CAP18_6", "result": 0.6}, {"measurement": "Relative change in MIC (MIC of the AMP-adpated line / MIC of the ancestral strain)", "setting": "[3]; AMP-adapted line CAP18_8", "result": 1}, {"measurement": "Relative change in MIC (MIC of the AMP-adpated line / MIC of the ancestral strain)", "setting": "[3]; AMP-adapted line CAP18_10", "result": 0.8}, {"measurement": "Relative change in MIC (MIC of the AMP-adpated line / MIC of the ancestral strain)", "setting": "[3]; AMP-adapted line HBD3_3", "result": 1.3}, {"measurement": "Relative change in MIC (MIC of the AMP-adpated line / MIC of the ancestral strain)", "setting": "[3]; AMP-adapted line HBD3_6", "result": 1}, {"measurement": "Relative change in MIC (MIC of the AMP-adpated line / MIC of the ancestral strain)", "setting": "[3]; AMP-adapted line HBD3_8", "result": 0.8}, {"measurement": "Relative change in MIC (MIC of the AMP-adpated line / MIC of the ancestral strain)", "setting": "[3]; AMP-adapted line HBD3_10", "result": 1.2}, {"measurement": "Relative change in MIC (MIC of the AMP-adpated line / MIC of the ancestral strain)", "setting": "[3]; AMP-adapted line LL37_1", "result": 0.8}, {"measurement": "Relative change in MIC (MIC of the AMP-adpated line / MIC of the ancestral strain)", "setting": "[3]; AMP-adapted line LL37_3", "result": 0.8}, {"measurement": "Relative change in MIC (MIC of the AMP-adpated line / MIC of the ancestral strain)", "setting": "[3]; AMP-adapted line LL37_6", "result": 0.6}, {"measurement": "Relative change in MIC (MIC of the AMP-adpated line / MIC of the ancestral strain)", "setting": "[3]; AMP-adapted line LL37_7", "result": 1}, {"measurement": "Relative change in MIC (MIC of the AMP-adpated line / MIC of the ancestral strain)", "setting": "[3]; AMP-adapted line LL37_10", "result": 0.8}, {"measurement": "Relative change in MIC (MIC of the AMP-adpated line / MIC of the ancestral strain)", "setting": "[3]; AMP-adapted line PEX_1", "result": 1}, {"measurement": "Relative change in MIC (MIC of the AMP-adpated line / MIC of the ancestral strain)", "setting": "[3]; AMP-adapted line PEX_4", "result": 1.4}, {"measurement": "Relative change in MIC (MIC of the AMP-adpated line / MIC of the ancestral strain)", "setting": "[3]; AMP-adapted line PEX_5", "result": 1}, {"measurement": "Relative change in MIC (MIC of the AMP-adpated line / MIC of the ancestral strain)", "setting": "[3]; AMP-adapted line PEX_6", "result": 1}, {"measurement": "Relative change in MIC (MIC of the AMP-adpated line / MIC of the ancestral strain)", "setting": "[3]; AMP-adapted line PEX_7", "result": 1.2}, {"measurement": "Relative change in MIC (MIC of the AMP-adpated line / MIC of the ancestral strain)", "setting": "[3]; AMP-adapted line PR39_1", "result": 1.1}, {"measurement": "Relative change in MIC (MIC of the AMP-adpated line / MIC of the ancestral strain)", "setting": "[3]; AMP-adapted line PR39_2", "result": 1}, {"measurement": "Relative change in MIC (MIC of the AMP-adpated line / MIC of the ancestral strain)", "setting": "[3]; AMP-adapted line PR39_5", "result": 1.3}, {"measurement": "Relative change in MIC (MIC of the AMP-adpated line / MIC of the ancestral strain)", "setting": "[3]; AMP-adapted line PR39_7", "result": 0.9}, {"measurement": "Relative change in MIC (MIC of the AMP-adpated line / MIC of the ancestral strain)", "setting": "[3]; AMP-adapted line PROA_2", "result": 1.1}, {"measurement": "Relative change in MIC (MIC of the AMP-adpated line / MIC of the ancestral strain)", "setting": "[3]; AMP-adapted line PROA_3", "result": 0.8}, {"measurement": "Relative change in MIC (MIC of the AMP-adpated line / MIC of the ancestral strain)", "setting": "[3]; AMP-adapted line PROA_7", "result": 0.8}, {"measurement": "Relative change in MIC (MIC of the AMP-adpated line / MIC of the ancestral strain)", "setting": "[3]; AMP-adapted line PROA_8", "result": 1.1}, {"measurement": "Relative change in MIC (MIC of the AMP-adpated line / MIC of the ancestral strain)", "setting": "[3]; AMP-adapted line PROA_9", "result": 1}, {"measurement": "Relative change in MIC (MIC of the AMP-adpated line / MIC of the ancestral strain)", "setting": "[3]; AMP-adapted line PXB_2", "result": 2.1}, {"measurement": "Relative change in MIC (MIC of the AMP-adpated line / MIC of the ancestral strain)", "setting": "[3]; AMP-adapted line PXB_5", "result": 3}, {"measurement": "Relative change in MIC (MIC of the AMP-adpated line / MIC of the ancestral strain)", "setting": "[3]; AMP-adapted line PXB_6", "result": 3}, {"measurement": "Relative change in MIC (MIC of the AMP-adpated line / MIC of the ancestral strain)", "setting": "[3]; AMP-adapted line PXB_8", "result": 2.7}, {"measurement": "Relative change in MIC (MIC of the AMP-adpated line / MIC of the ancestral strain)", "setting": "[3]; AMP-adapted line PXB_10", "result": 1.6}, {"measurement": "Gene that modulates bacterial susceptibility to the AMP", "setting": "[4]; Bordetella pertussis, ref http://www.ncbi.nlm.nih.gov/pmc/articles/PMC4136009/", "result": "lgmA, IgmB, IgmC"}, {"measurement": "Gene that modulates bacterial susceptibility to the AMP", "setting": "[4]; Staphylococcus aureus, ref http://onlinelibrary.wiley.com/doi/10.1111/j.1365-2958.2007.05986.x/epdf", "result": "apsS"}]}]}
